Consider 51 compounds from ChEMBL document CHEMBL1201862, “PubChem BioAssay data set” (2004).

Holding throughout (experiment): NCI anticancer screen, dose series, 48 h
The test system of test [1] is BT-549.
For test [2], the system named is LXFL 529.
The test system of test [3] is XF498.
Test [4] concerns DMS-273.
Test [5] concerns KM-20L2.
Test [6] has as its system DMS-114.
The test system of test [7] is SNB-78.
The subject of test [8] is HOP-18.

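These data come from cells grown in 96-well plates and exposed to compound for 48 hours at five concentrations. GI50 is the concentration that inhibits growth by half.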 The source made the active and inactive calls. Cut-off read from the data, not from the text of the source: active = GI50 up to about 1.1 µM and inactive = higher. Square brackets hold non-standard residues; d marks the D form. Peptide text beside a SMILES is read from it. pGlu = O=C1CC[CH](C(=O)O)N1 Bounds are passed on as bounds.

For the compound `O=C(CCC=C(S(=O)(=O)c1ccccc1)S(=O)(=O)c1ccccc1)c1ccccc1`, the GI50 in test [1] was 5.82 µM (inactive). As for `CC#Cc1c(C#CC)c(OC)c2c(c1OC)C(=O)c1ccccc1C2=O`, the GI50 is 54.2 µM (inactive) in test [2]; > 100 µM (inactive) in test [3]; 22.8 µM (inactive) in test [4]; > 100 µM (inactive) in test [5]; 20.7 µM (inactive) in test [6].

As for `CN(C)c1c([O-])c(=[N+](C)C)c1=O`, the GI50 in test [2], in test [3], in test [4] and in test [7] was > 100 µM (inactive) throughout. For `Oc1c(CN2CCOCC2)ccc2cccnc12`, the GI50 in test [1] was 1.51 µM (inactive). In the case of `CN(C)c1ccc(C(=N/N=C2\C(=O)Nc3ccccc32)c2ccc(N(C)C)cc2)cc1`, the GI50 in test [1] was 0.938 µM (active). Turning to `COc1ccc(CNc2nc3ccccc3nc2-c2cccs2)cc1`, the GI50 in test [1] is 22.1 µM (inactive). `CC(C)(C)C#CI1OC(=O)c2ccccc21`: the GI50 in test [1] was 3.16 µM (inactive). On the same count and under the same terms, under `Cc1cc(S(=O)(=O)Nc2nc(N)n[nH]2)c(Cl)cc1Cl` stands > 10 µM (inactive). As for `O=C1CC2C(=O)N(Cc3ccccc3)C1C=C2S(=O)(=O)c1ccccc1` (centres undefined), the GI50 in test [2], in test [3], in test [5], in test [6], in test [8] and in test [7] was > 100 µM (inactive) in each case. On to `CC(C)=CCOC(=O)C(C)=[N+]=[N-]`, for which the GI50 in test [1] was > 100 µM (inactive). On to `COP(=O)(OC)C(Nc1ccc(Cc2ccc(NC(c3ccco3)P(=O)(OC)OC)cc2)cc1)c1ccco1` (centres undefined), for which, in test [1], the GI50 was 17.3 µM (inactive). Still for that read-out and setting: under `CC1=NN(c2nc(N)nc(CN3CCOCC3)n2)C(C)(C)C1` stands > 100 µM (inactive).

`CC(O)C1(CNc2cc(Cl)nc(N)n2)CCCC1` (centres undefined): the GI50 in test [1] is > 100 µM (inactive). The same measure, in the same setting: under `CN(C)CCN(C)c1ccc2c(=O)n(CCN(C)C)c(=O)n3c4ccccc4c(=O)c1c23` stands 3.3 µM (inactive). Still for that read-out and setting: the result for `CO/C(N)=C(C#N)/N=C/c1cccnc1` reads > 100 µM (inactive); that for `COc1cc(C2c3cc4c(cc3OC(NCCc3ccccc3)C2C)OCO4)cc(OC)c1OC` (centres undefined), 0.617 µM (active). Still for that read-out and setting: the result for `O=C(c1ccco1)N(C(=S)OCCOc1ccccc1)c1ccccc1` reads 23 µM (inactive). In the case of `COC(=O)C(NC(=O)CNC(=O)CSc1nnc(COc2ccc(Cl)cc2)n1-c1ccccc1)C(C)C` (centres undefined), the GI50 in test [1] is 18.5 µM (inactive). The same measure, in the same setting: the result for `NCC(=O)NC(CO)C(=O)O` (centres undefined) reads > 100 µM (inactive); that for `CN(C)Cc1cc(C(=O)/C=C/c2cccc(Cl)c2)cc(CN(C)C)c1O`, 9.64 µM (inactive); that for `Cc1cc2nnc(C(N)=O)c(N)c2cc1C`, > 100 µM (inactive). On the same count and under the same terms, the result for `Cc1[nH]c(/C=C2\C(=O)Nc3ccccc32)c(C)c1CCC(=O)O` [ORANTINIB] reads 34.1 µM (inactive). The same measure, in the same setting: under `CC(NC(=O)C(Cc1c[nH]cn1)NC(=O)C1CCC(=O)N1)C(N)=O` (stereo not drawn) ([pGlu]-His-Ala-NH2; configuration not given here) stands > 100 µM (inactive). In the case of `COc1ccc(C2=C3c4cc(OC)c(OC)cc4CCN3C(=S)SS2)cc1OC`, the GI50 was 52.5 µM (inactive) in test [2]; 43.5 µM (inactive) in test [4]; 75.9 µM (inactive) in test [5]; 65.2 µM (inactive) in test [6]; > 100 µM (inactive) in test [8]; 80.4 µM (inactive) in test [7].

Take `Nc1nc(Cl)cc(NCC2(CO)COC2)n1`: the GI50 in test [1] is > 100 µM (inactive). On the same count and under the same terms, the result for `NC(=O)c1ccc(S(=O)(=NS(=O)(=O)c2ccccc2)c2ccc(C(N)=O)cc2)cc1` reads > 100 µM (inactive); that for `O=C(OC1=CCN(Br)C1=O)C1=C(O)C(=O)N(Br)C1`, 18.2 µM (inactive); that for `CCCCCCCC/C=C\CCCCCCC/C=C1/C[C@](/C=C/C(=O)OC)(CO)OC1=O`, 5.02 µM (inactive). Regarding `CC(=O)/C=C/c1ccc(C)cc1`, the GI50 in test [2], in test [4], in test [5], in test [6], in test [8] and in test [7] was > 100 µM (inactive) throughout.

With `Cc1[nH]n(C(=N)N)c(=O)c1CCO`, in test [1], the GI50 is > 100 µM (inactive).

Consider `C=C1CC(c2ccc(O)c(OC)c2)Oc2c(OC)cccc21` (centres undefined), for which the GI50 is 26.2 µM (inactive) in test [2]; 18.3 µM (inactive) in test [4]; > 100 µM (inactive) in test [5]; 20.4 µM (inactive) in test [6]; > 100 µM (inactive) in test [8]; 33.2 µM (inactive) in test [7].

As to `COC(=O)c1ccc(/C=C(\c2ccc([N+](=O)[O-])o2)S(=O)(=O)c2ccc(NC(C)=O)cc2)o1`, the GI50 in test [1] is 0.565 µM (active).

Regarding `O=C1CSCc2sccc21`, the GI50 in test [1] was > 100 µM (inactive). Still for that read-out and setting: under `CC(=O)NC1(C)CCC(C(C)(C)NC(C)=O)CC1` (centres undefined) stands > 100 µM (inactive); under `Cc1ccc([N+](=O)[O-])cc1S(=O)(=O)Nc1ccc(C2=NN(c3ccc([N+](=O)[O-])cc3[N+](=O)[O-])C(c3cccs3)C2)cc1` (centres undefined), 20.7 µM (inactive). Still for that read-out and setting: under `O=C1C(Br)=C(Br)C(=O)c2c(O)ccc(O)c21` stands 13.9 µM (inactive); under `CN(C)c1ccc(/C=C(\NC(=O)c2ccccc2)C(=O)Nc2ccccc2C(=O)NCc2ccccc2)cc1`, > 100 µM (inactive). Same read-out and setting: the result for `COC(=O)[C@@H](NC(=O)N(Cc1ccccc1)C[C@H](CC(C)C)NC(=O)[C@@H](NC(=O)OC(C)(C)C)C(C)C)C(C)C` reads > 100 µM (inactive).

As to `CN(C)CCn1c2ccccc2c2nc3cc4ccccc4cc3nc21`, the GI50 was 4.95 µM (inactive) in test [2]; 7.66 µM (inactive) in test [3]; 3.13 µM (inactive) in test [4]; 3.3 µM (inactive) in test [5]; 6.47 µM (inactive) in test [6]. Take `O=C(Nc1cc(C(F)(F)F)ccc1Cl)C(=O)C(C(=O)c1ccc2ccccc2c1)C1OC(=O)c2ccccc21` (centres undefined): the figures for the GI50 in test [2], in test [5] and in test [6] were 5.11 µM (inactive), 20.4 µM (inactive) and 11.4 µM (inactive), respectively. Consider `CCC(Cc1cnc2nc(N)nc(N)c2n1)c1ccc(C(=O)NC(CCC(=O)O)C(=O)O)cc1` (centres undefined), for which the GI50 in test [1] was > 100 µM (inactive). On the same count and under the same terms, the result for `COc1ccc(NC(=S)C#N)cc1` reads > 100 µM (inactive); that for `C=CCN1C(=O)/C(=C/c2ccc(C)cc2)NC1=S`, > 100 µM (inactive); that for `O=C(O)CN1CCNCCN(CC(=O)O)CCNCC1`, > 85.5 µM (inactive). Take `C[C@]12CC[C@H]3[C@@H](CCC4=CC(=O)C=C[C@@]43OC(=O)C(F)(F)F)[C@@H]1CCC2=O`: the GI50 in test [1] was > 100 µM (inactive). Still for that read-out and setting: under `NC(C(=O)O)C(O)c1c[nH]cn1` (centres undefined) stands > 100 µM (inactive); under `O=c1cccccc1O` [TROPOLONE], 87.1 µM (inactive); under `O=C1CSC(c2c[nH]c3ccccc23)N1c1cccc([N+](=O)[O-])c1` (centres undefined), > 100 µM (inactive).

As to `Cc1nc2c(o1)C(=O)c1ccccc1/C2=N/c1ccc(N2CCOCC2)cc1`, in test [1], the GI50 is 2.12 µM (inactive). The same measure, in the same setting: the result for `Brc1ccc(-c2ccc(-c3ccc(Br)s3)s2)s1` reads > 100 µM (inactive); that for `COC(=O)[C@]1(c2cc3ccccc3n2S(=O)(=O)c2ccccc2)CC2CCC1NC2` (some centres undefined), 14.5 µM (inactive).
